In one series the target is T1, human NPY Y1 receptor (Homo sapiens, UniProt P25929).
T1 construct: expressed in transfected cells; host or cells: CHO-K1 NFAT β-Lactamase (Aurora)
T1 sequence (P25929 1-384): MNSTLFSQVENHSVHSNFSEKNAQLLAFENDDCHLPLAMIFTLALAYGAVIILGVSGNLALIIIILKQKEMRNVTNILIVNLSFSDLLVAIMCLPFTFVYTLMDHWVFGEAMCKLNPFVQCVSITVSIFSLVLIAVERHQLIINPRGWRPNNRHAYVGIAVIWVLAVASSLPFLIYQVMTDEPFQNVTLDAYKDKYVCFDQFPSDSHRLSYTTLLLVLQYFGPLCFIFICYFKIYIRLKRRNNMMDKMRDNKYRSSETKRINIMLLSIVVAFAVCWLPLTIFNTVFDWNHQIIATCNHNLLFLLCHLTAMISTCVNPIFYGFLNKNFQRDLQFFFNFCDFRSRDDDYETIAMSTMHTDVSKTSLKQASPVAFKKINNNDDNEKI
Kind of series: NPY binding inhibition test ([125I] peptide YY binding to membranes of NPY Y1 receptor expressing CHO-K1 cells). To be noted: membrane of CHO-K1 cells expressing human NPY Y1 receptor, 25° C., 2 hours; read-out: IC50 against specific [125I] peptide YY binding. An excerpt:
A cDNA sequence encoding a human NPY Y1 receptor (Accession No. L07615) was cloned into expression vectors pEF1x (made by Invitrogen Inc.).

A further series addresses T2, human P-glycoprotein (Homo sapiens, UniProt P08183).
T2 construct: host or cells: porcine kidney-derived LLC-PK1 cells
Kind of series: Assay on P-glycoprotein substrate specificity (transcellular transport, LLC-PK1 cells expressing human P-glycoprotein). The format is in vitro ADME. Particulars: for efflux ratio at 3 h, 1 μM: pH 7.4, 1 μM test compound, human P-gp expressing LLC-PK1 cells, read-out: BA/AB (ratio of permeability coefficients Papp B to A / A to B). The protocol:
P-glycoprotein (P-gp) substrate specificities were assessed in a transcellular transport assay system using cells expressing human P-glycoprotein. The human P-glycoprotein expression cells employing porcine kidney-derived LLC-PK1 cells as host cells were obtained from Dr. Alfred Schinkel in the Netherlands Cancer Institute [see Journal of Clinical Investigation, vol. 96, p. […] The cells were seeded on a filter membrane of 24-well HTS multiwell insert system (manufactured by Beckton Dickinson) to have a concentration of 0.15 million cells/well. The cells were cultured for about 1 week to form a single layer film by the cells. The multiwell insert system is divided into two compartments (the apical membrane side compartment and the basolateral membrane side compartment). Prior to the transport experiment, cell culture media on both sides (apical and basolateral sides) were replaced by Hank's balanced salt solution (HBSS) containing an assay buffer solution (10 mM Hepes (pH 7.4)). After about 1 hour, the basolateral and apical solutions were replaced by an assay buffer solution (0.5 mL) and a 1 μM test compound-containing assay buffer solution (0.5 mL), respectively, and the transport experiment was started for transportation from Apical to Basolateral (from A to B). After 3 hours, each 50 μL was collected as a measuring sample from both of the apical and basolateral sides. The reverse operation thereof was carried out for transportation from Basolateral to Apical (from B to A). […] After termination of the transport experiment, an equal amount of acetonitrile containing the internal standard was added to each measuring sample. The measuring samples were measured using LC-MS/MS to calculate the concentrations of the test compounds by a relative calibration curve method. The permeability coefficients of the test compounds transported in each of from A to B and from B to A were calculated (Papp: Expression 1). The ratios of the permeability coefficients between A to B and B to A were also determined (BA/AB: Expression 2). BA/AB was considered to be an index of P-glycoprotein (p-gp) substrate specificity [see Drug Metabolism and Disposition, vol. 31, p.
Papp=(0.5 mL×CR)/((CD+CR)×3 hr×Area) Expression 1
BA/AB=Papp(B to A)/Paap(A to B) Expression 2
Area: surface area of filter; CD: concentration of test compound in donor side after 3 hours; CR: concentration of test compound in receiver side after 3 hours

From patent publication US20120028970A1, “HETEROARYLTHIOMETHYL PYRIDINE DERIVATIVE” (MSD K.K., priority 2009, published 2012) come the findings set out here.

T2 sequence (P08183 whole entry): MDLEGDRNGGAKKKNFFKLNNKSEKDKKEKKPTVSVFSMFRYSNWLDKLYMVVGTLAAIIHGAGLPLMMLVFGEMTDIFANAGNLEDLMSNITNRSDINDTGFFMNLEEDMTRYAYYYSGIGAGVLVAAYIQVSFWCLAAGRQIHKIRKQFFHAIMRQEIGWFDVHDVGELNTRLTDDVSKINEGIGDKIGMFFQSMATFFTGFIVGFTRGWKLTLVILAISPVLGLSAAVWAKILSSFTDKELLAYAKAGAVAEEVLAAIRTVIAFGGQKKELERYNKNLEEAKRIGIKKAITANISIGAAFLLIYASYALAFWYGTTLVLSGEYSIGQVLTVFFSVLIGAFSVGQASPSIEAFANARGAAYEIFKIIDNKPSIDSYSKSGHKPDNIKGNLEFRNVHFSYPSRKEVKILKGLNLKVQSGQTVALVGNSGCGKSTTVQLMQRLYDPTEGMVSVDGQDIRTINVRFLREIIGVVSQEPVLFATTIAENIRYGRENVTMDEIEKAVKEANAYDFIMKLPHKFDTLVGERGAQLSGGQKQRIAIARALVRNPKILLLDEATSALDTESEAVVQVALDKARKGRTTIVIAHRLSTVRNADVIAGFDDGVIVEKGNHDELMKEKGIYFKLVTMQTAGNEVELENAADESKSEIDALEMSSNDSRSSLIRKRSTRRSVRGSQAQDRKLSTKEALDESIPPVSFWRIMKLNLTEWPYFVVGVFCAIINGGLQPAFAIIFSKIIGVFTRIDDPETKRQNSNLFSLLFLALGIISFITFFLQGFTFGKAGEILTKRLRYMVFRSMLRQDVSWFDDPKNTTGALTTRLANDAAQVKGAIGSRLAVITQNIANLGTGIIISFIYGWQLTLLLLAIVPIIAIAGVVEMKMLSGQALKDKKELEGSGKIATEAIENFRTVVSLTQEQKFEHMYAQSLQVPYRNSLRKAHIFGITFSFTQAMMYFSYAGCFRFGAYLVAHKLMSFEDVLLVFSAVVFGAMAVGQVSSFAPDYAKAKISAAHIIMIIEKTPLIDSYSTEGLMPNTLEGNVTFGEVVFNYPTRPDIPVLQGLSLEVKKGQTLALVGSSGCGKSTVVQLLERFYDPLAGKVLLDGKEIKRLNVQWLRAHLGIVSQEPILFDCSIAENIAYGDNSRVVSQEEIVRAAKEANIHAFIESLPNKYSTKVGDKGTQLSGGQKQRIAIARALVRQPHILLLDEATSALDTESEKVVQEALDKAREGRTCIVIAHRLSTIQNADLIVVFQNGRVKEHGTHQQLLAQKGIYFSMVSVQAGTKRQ

As for `C=CCOC(=O)Nc1cccc(CNc2cc(C3CCOCC3)cc(CSc3nnc(CC)s3)n2)c1` [Compound (A), reference compound], at human NPY Y1 receptor, the half-maximal inhibitory concentration (IC50) was 0.33 nM. The efflux ratio at 3 h, 1 μM on human P-glycoprotein was 5.

As to `Cc1nc(SCc2cc(N3CCSCC3)cc(NCc3cccc(F)n3)n2)oc1C` [Example 1, 6-{[(4,5-dimethyl-1,3-oxazol-2-yl)sulfanyl]methyl}-N-[(6-fluoropyridin-2-yl)methyl]-4-(thiomorpholin-4-yl)pyridin-2-amine], the concentration for half-maximal inhibition (IC50) at human NPY Y1 receptor was 0.27 nM. Also, on human P-glycoprotein, the “human P-glycoprotein substrate specificity (in words)” value is “notably low human P-glycoprotein substrate specificity” and the efflux ratio at 3 h, 1 μM stood at 1.9.

Turning to `Cc1cccc(CNc2cc(N3CCSCC3)cc(CSc3nc(C)c(C)s3)n2)n1` [Example 2, 6-{[(4,5-dimethyl-1,3-thiazol-2-yl)sulfanyl]methyl}-N-[(6-methylpyridin-2-yl)methyl]-4-(thiomorpholin-4-yl)pyridin-2-amine], at human NPY Y1 receptor, the IC50 turned out to be 0.17 nM.

On to `CCc1sc(SCc2cc(N3CCC(F)CC3)cc(NCc3cccc(C)n3)n2)nc1C` [Example 3, 6-{[(5-ethyl-4-methyl-1,3-thiazol-2-yl)sulfanyl]methyl}-4-(4-fluoropiperidin-1-yl)-N-[(6-methylpyridin-2-yl)methyl]pyridin-2-amine], for which, at human NPY Y1 receptor, the IC50 stood at 0.26 nM.

As for `C=CCNc1cc(N2[C@@H]3CC[C@H]2C[C@H](F)C3)cc(CSc2nc(C)c(CC)s2)n1` [Example 4, 6-{[(5-ethyl-4-methyl-1,3-thiazol-2-yl)sulfanyl]methyl}-4-[(3-exo)-3-fluoro-8-azabicyclo[3,2,1]octo-8-yl]-N-(prop-2-en-1-yl)pyridin-2-amine], on human NPY Y1 receptor, the IC50 was 0.27 nM.

Consider `Cc1cccc(CNc2cc(N3C4CCC3CC(F)(F)C4)cc(CSc3cc(C)n(C)n3)n2)n1` [Example 5, 4-(3,3-difluoro-8-azabicyclo[3,2,1]octo-8-yl)-6-{[(1,5-dimethyl-1H-pyrazol-3-yl)sulfanyl]methyl}-N-[(6-methylpyridin-2-yl)methyl]pyridin-2-amine], for which the IC50 on human NPY Y1 receptor stood at 0.24 nM.

As for `C=CCNc1cc(N2CCC(F)(F)CC2)cc(CSc2cc(CC)n(C)n2)n1` [Example 6, 4-(4,4-difluoropiperidin-1-yl)-6-{[(5-ethyl-1-methyl-1H-pyrazol-3-yl)sulfanyl]methyl}-N-(prop-2-en-1-yl)pyridin-2-amine], the 50% inhibitory concentration (IC50) at human NPY Y1 receptor is 0.28 nM.

For `CCCCNc1cc(N2CCC(F)(F)CC2)cc(CSc2nn(C)c(CC)c2C)n1` [Example 7, N-butyl-4-(4,4-difluoropiperidin-1-yl)-6-{[(5-ethyl-1,4-dimethyl-1H-pyrazol-3-yl)sulfanyl]methyl}pyridin-2-amine], the IC50 on human NPY Y1 receptor turned out to be 0.27 nM.

Consider `CCc1c(C)c(SCc2cc(N3CCC(F)(F)CC3)cc(NCCOC)n2)nn1C` [Example 8, 4-(4,4-difluoropiperidin-1-yl)-6-{[(5-ethyl-1,4-dimethyl-1H-pyrazol-3-yl)sulfanyl]methyl}-N-(2-methoxyethyl)pyridin-2-amine], for which, on human NPY Y1 receptor, the 50% inhibitory concentration (IC50) was determined as 0.27 nM.

Turning to `Cc1cccc(CNc2cc(N3CCOCC3)cc(CSc3nc(CF)c(C)s3)n2)n1` [Example 9, 6-({[4-(fluoromethyl)-5-methyl-1,3-thiazol-2-yl]sulfanyl}methyl)-N-[(6-methylpyridin-2-yl)methyl]-4-(morpholin-4-yl)pyridin-2-amine], on human NPY Y1 receptor, the half-maximal inhibitory concentration (IC50) amounted to 0.2 nM. Besides, on human P-glycoprotein, the “human P-glycoprotein substrate specificity (in words)” value was “notably low human P-glycoprotein substrate specificity” and the efflux ratio at 3 h, 1 μM came out at 1.8.

For `CCc1sc(SCc2cc(N3CCOCC3)cc(NCc3cccc(C)n3)n2)nc1CF` [Example 10, 6-({[5-ethyl-4-(fluoromethyl)-1,3-thiazol-2-yl]sulfanyl}methyl)-N-[(6-methylpyridin-2-yl)methyl]-4-(morpholin-4-yl)pyridin-2-amine], the half-inhibitory concentration (IC50) at human NPY Y1 receptor was 0.13 nM.

With `Cc1cccc(CNc2cc(N3CCOCC3)cc(CSc3nc(CF)c(C4CC4)s3)n2)n1` [Example 11, 6-({[5-cyclopropyl-4-(fluoromethyl)-1,3-thiazol-2-yl]sulfanyl}methyl)-N-[(6-methylpyridin-2-yl)methyl]-4-(morpholin-4-yl)pyridin-2-amine], the 50% inhibitory concentration (IC50) on human NPY Y1 receptor came to 0.19 nM.

The IC50 is the concentration that gives 50% inhibition.
